Results published in US8097585B2, “Methods of treating inflammation by administration of heme oxygenase-1 and products of heme degradation” (priority 2002, dated 2012).
Where a name gives a salt, the structure may show the parent alone.

How the values were obtained:
HO-1 = HO-1 expression in donor tissues and islets after CoPP; format: in vivo, mice; settings: CoPP given to the donor animal; heart, kidney, pancreas, liver and spleen
Protocol: Induction of HO-1/Administration of biliverdin/bilirubin. When given to the donor, CoPPIX (20 mg/kg) was given 24 hours before islet isolation to induce HO-1 expression. To verify HO-1 expression in different organs after CoPP treatment, tissue samples are collected 24 hours after treatment and snap frozen in liquid nitrogen. Immunohistological analysis of HO-1 expression is performed using an anti-HO-1 antibody. CoPPIX (20 mg/kg) was administrated to the recipient intraperitoneally (i.p.) on day-1, 1, 3, 5 and 7. Biliverdin (50 μmol/kg) or bilirubin (8.5 μmol/kg) was given intraperitoneally to the donor one hour before islet isolation. For the recipient, biliverdin (50 μmol/kg) or bilirubin ([…]) was administered intraperitoneally either daily or twice per day from day-1 until day 13. No further treatment was given afterwards.
Semi-Quantitative PCR. RNA was extracted using Rneasy™ Mini Kits (Qiagen Inc., CA, USA) and reverse transcribed into cDNA with the RNA PCR Kit (TaKaRa, PanVera, Madison, Wis., USA). A total of 2 μg of cDNA was amplified in a 50 μl reaction mix containing 10 μM dNTPs, […] of 5′-prime and 3′-prime oligos, 2.5 U of LA-Taq polymerase (TaKaRa) and MgCl2, specific to each primer pair used. […] PCR products (10-20 μl) were analyzed in an ethidium bromide-stained 1% agarose gel.

NF-κB = experiment: EMSA of nuclear extracts, NF-κB DNA binding; format: cell-based; settings: Jurkat T cells, PMA plus ionomycin, 100 μM biliverdin
Protocol: Nuclear protein extraction and electrophoretic mobility shift assay (EMSA). Jurkat T cells were cultured in 10% FCS supplemented RPMI 1640 with 50 nM phorbol myristyl acetate (PMA) and 2 μM ionomycin (both reagents from ICN Biomedicals) in the presence or absence of 100 μM biliverdin. Following 0, 2, and 4 hrs of stimulation, cells (30×10^6 cells for each group at each time points) were collected, washed twice with PBS, and pelleted. Nuclear and cytoplasmic extracts were prepared according to a modified Shapiro's method (Shapiro et al., DNA 7(1):47-55, 1988). Protein concentrations were determined by the Bradford assay. The following oligonucleotides (Invitrogen, Calsbad, Calif.) were used for EMSA:
NF-κB, (coding) 5′-[…]-3′ (SEQ ID NO:7),
(non-coding) 5′-[…]-[…]-3′ (SEQ ID NO:8).
Oligonucleotides were radioactively labeled with [^32P] ATP. The EMSA reactions were assembled as previously described (Usheva et al., Proc. Natl. Acad. Sci. USA 93(24):13571-6, 1996). Digital images from the EMSA radiographs were obtained using an image scanner.

[1] = test system: neointimal formation in carotid arteries; experiment: Carotid balloon injury model, neointimal formation; format: in vivo, Lewis Rats; settings: 14 days
Source text: Animals. Adult male Lewis Rats (LEW/CrlBR; Charles River Laboratories, Wilmington, Mass.) weighing 350-400 g were used in the balloon injury model. Animals were housed in accordance with the guidelines from the American Association for Laboratory Animal Care and research protocols were approved by the institutional animal care and use committee of the Beth Israel Deaconess Medical Center, Boston, Mass.
Balloon Injury model. After the exposure of the left common carotid and the left external carotid arteries, a 2F Fogarty catheter (Edwards Lifesciences LLC, Irvine, Calif.) was introduced via the external carotid artery and was advanced into the left common carotid artery, inflated to 2 atmospheres of pressure and pulled back to the point of bifurcation, then deflated. This procedure was repeated three times.
Experimental reagents and design. […]
Histomorphometric analysis. […] Images were analyzed by manual segmentation, tracing intima and media in each section. Areas and diameters were calculated by digital imaging software (AxioVision™, Carl Zeiss, Jena, Germany) as number of pixels corresponding to those areas and diameters. […] 24 sections from each group were statistically analyzed with StatView® software version 5.0 using ANOVA.

B6AF1 splenocytes = experiment: Mixed lymphocyte culture (irradiated DBA/2 splenocytes as stimulators) in vitro; format: cell-based, mouse; settings: biliverdin 10 μM
Protocol: Mixed lymphocyte culture (MLC). Irradiated (25Gy, ^137Cs) DBA/2 splenocytes (5×10^5/well) were co-cultured with responders (5×10^5/well) in a 96 well round bottom plates for 3 days at 37° C., 95% air with 5% CO2. When using cells from cardiac recipients as responders, the co-culture period was 3 days without any further in vitro treatment. ^3H-thymidine (1 μCi/well) was added 16 hours before termination of cell culture, and ^3H-thymidine incorporation was measured.

Structure (SMILES)	HO-1 expression in donor tissues (HO-1)	DNA binding of NF-κB (NF-κB)	neointimal formation after balloon injury ([1]; local pre-treatment, instilled into common carotid artery for one hour)	neointimal formation after balloon injury ([1]; systemic treatment, 50 μmol/kg i.p. at two time points)	alloantigen mediated T cell activation (proliferation) (B6AF1 splenocytes)
C=CC1=C(C)c2cc3[n-]c(cc4nc(cc5[n-]c(cc1n2)c(C)c5CCC(=O)[O-])C(CCC(=O)[O-])=C4C)c(C)c3C=C.[Co+2].[H+].[H+] [CoPP, Cobalt protoporphyrin]	HO-1 expression was observed in several different tissues	–	–	–	–
C=CC1=C(C)/C(=C/C2=NC(=C\c3[nH]c(/C=C4\NC(=O)C(C)=C4C=C)c(C)c3CCC(=O)O)/C(CCC(=O)O)=C2C)NC1=O [biliverdin, biliverdin dihydrochloride]	–	inhibited DNA binding	significantly inhibits neointimal formation	significantly inhibits neointimal formation	significant suppressive effect
